Experimental data from ChEMBL document CHEMBL4680202, “Development, synthesis and biological investigation of a novel class of potent PC-PLC inhibitors” (Eur J Med Chem, 2020).

tested on: Bacillus cereus; assay: Inhibition of Bacillus cereus PC-PLC assessed as residual activity at 10 uM using phosphatidylcholine as substrate measured after 1 hr by horseradish peroxidase/alkaline phosphatase/choline oxidase-coupled amplex red reagent based fluorescence assay relative to control

SMILES | Activity
Fc1cccc(CNc2ccc(N3CCCCC3)cc2)c1 | 10.7%
O=C(O)c1cc(NCc2ccc(F)cc2)ccc1N1CCOCC1 | 30.3%
COc1cccc(CNc2ccc(N3CCOCC3)cc2)c1 | 5.6%
O=C(O)c1cc(NCc2ccc(Br)cc2)ccc1N1CCOCC1 | 28.7%
Oc1cccc(CNc2ccc(N3CCCCC3)cc2)c1 | 7.6%
Cc1ccc(CNc2ccc(N3CCOCC3)cc2)cc1 | 5.4%
FC(F)(F)c1ccccc1CNc1ccc(N2CCCCC2)cc1 | 49.3%
FC(F)(F)c1cccc(CNc2ccc(N3CCOCC3)cc2)c1 | 23.4%
O=C(O)c1cc(NCc2ccccc2C(F)(F)F)ccc1N1CCOCC1 | 34.1%
O=C(O)c1cc(NCc2ccc(C(F)(F)F)cc2)ccc1N1CCOCC1 | 45.5%
COC(=O)c1cc(NCc2cccc(OC)c2)ccc1N1CCOCC1 | 64.6%
COC(=O)c1cc(NCc2ccccc2C(F)(F)F)ccc1N1CCOCC1 | 83%
COC(=O)c1cc(NCc2cccc(C)c2)ccc1N1CCOCC1 | 54%
Oc1cccc(CNc2ccc(N3CCNCC3)cc2)c1 | 30.9%
COC(=O)c1cc(NCc2ccccc2O)ccc1N1CCOCC1 | 38.6%
Oc1cccc(CNc2ccc(N3CCOCC3)cc2)c1 | 3.4%
O=C(O)c1cc(NCc2cccc(C(F)(F)F)c2)ccc1N1CCOCC1 | 44.6%
Clc1cccc(CNc2ccc(N3CCCCC3)cc2)c1 | 24.7%
Clc1cccc(CNc2ccc(N3CCNCC3)cc2)c1 | 27.4%
COC(=O)c1cc(NCc2ccccc2F)ccc1N1CCOCC1 | 56.8%
COC(=O)c1cc(NCc2ccccc2)ccc1N1CCOCC1 | 57.7%
COC(=O)c1cc(NCc2ccc(Br)cc2)ccc1N1CCOCC1 | 77.3%
COC(=O)c1cc(NCc2cccc(Cl)c2)ccc1N1CCOCC1 | 65.6%
COC(=O)c1cc(NCc2cccc(F)c2)ccc1N1CCOCC1 | 64.5%
COc1cccc(CNc2ccc(N3CCOCC3)c(C(=O)O)c2)c1 | 28.1%
CN1CCN(c2ccc(NCc3ccc(Cl)cc3)cc2)CC1 | 16.6%
c1ccc(Oc2cccc(CNc3ccc(N4CCOCC4)cc3)c2)cc1 | 39.3%
COC(=O)c1cc(NCc2ccc(Cl)cc2)ccc1N1CCOCC1 | 87.5%

SMILES | Activity
COC(=O)c1cc(NCc2ccc(C(F)(F)F)cc2)ccc1N1CCOCC1 | 78.6%
COC(=O)c1cc(NCc2ccc(O)cc2)ccc1N1CCOCC1 | 48.3%
c1ccc(CNc2ccc(N3CCNCC3)cc2)cc1 | 26.3%
O=C(O)c1cc(NCc2ccccc2F)ccc1N1CCOCC1 | 29.9%
Clc1ccc(CNc2ccc(N3CCOCC3)cc2)cc1 | 12.9%
Oc1ccc(CNc2ccc(N3CCNCC3)cc2)cc1 | 51.3%
Fc1ccc(CNc2ccc(N3CCCCC3)cc2)cc1 | 6.6%
Cc1cccc(CNc2ccc(N3CCOCC3)cc2)c1 | 8.3%
COC(=O)c1cc(NCc2ccc(OC)cc2)ccc1N1CCOCC1 | 58.9%
Clc1ccc(CNc2ccc(N3CCNCC3)cc2)cc1 | 31.3%
COC(=O)c1cc(NCc2cccc(O)c2)ccc1N1CCOCC1 | 52.8%
Cc1ccc(CNc2ccc(N3CCOCC3)c(C(=O)O)c2)cc1 | 33.4%
COC(=O)c1cc(NCc2cccc(C(F)(F)F)c2)ccc1N1CCOCC1 | 64.1%
O=C(O)c1cc(NCc2ccc(Cl)cc2)ccc1N1CCOCC1 | 26.7%
O=C(O)c1cc(NCc2ccccc2Cl)ccc1N1CCOCC1 | 11.5%
Oc1ccc(CNc2ccc(N3CCCCC3)cc2)cc1 | 11%
COC(=O)c1cc(NCc2cccc(Oc3ccccc3)c2)ccc1N1CCOCC1 | 130%
Fc1ccc(CNc2ccc(N3CCNCC3)cc2)cc1 | 21.1%
Brc1ccc(CNc2ccc(N3CCOCC3)cc2)cc1 | 18.1%
Oc1ccc(CNc2ccc(N3CCOCC3)cc2)cc1 | 6.5%
O=C(O)c1cc(NCc2cccc(Oc3ccccc3)c2)ccc1N1CCOCC1 | 47.5%
Brc1cccc(CNc2ccc(N3CCOCC3)cc2)c1 | 11.6%
O=C(O)c1cc(NCc2ccc(-c3ccccc3)cc2)ccc1N1CCOCC1 | 40.1%
Fc1cccc(CNc2ccc(N3CCNCC3)cc2)c1 | 26%
FC(F)(F)c1ccc(CNc2ccc(N3CCOCC3)cc2)cc1 | 27.6%
c1ccc(CNc2ccc(N3CCOCC3)cc2)cc1 | 0%
O=C(O)c1cc(NCc2ccc(O)cc2)ccc1N1CCOCC1 | 43.8%

Now from value to molecule:

Activity | SMILES
1.2% | COc1ccccc1CNc1ccc(N2CCOCC2)cc1
14.1% | Brc1ccccc1CNc1ccc(N2CCOCC2)cc1
42.3% | CC(C)(C)OC(=O)N1CCN(c2ccc(NCc3ccccc3)cc2)CC1
9.4% | CN1CCN(c2ccc(NCc3ccc(O)cc3)cc2)CC1
14.8% | Oc1ccccc1CNc1ccc(N2CCCCC2)cc1
26.5% | CC(C)(C)OC(=O)N1CCN(c2ccc(NCc3ccccc3O)cc2)CC1
12.7% | CN1CCN(c2ccc(NCc3cccc(O)c3)cc2)CC1
31.5% | CN1CCN(c2ccc(NCc3ccccc3)cc2)CC1
7.9% | Clc1ccccc1CNc1ccc(N2CCOCC2)cc1
29.3% | COc1ccccc1CNc1ccc(N2CCN(C)CC2)cc1
19.9% | COc1ccccc1CNc1ccc(N2CCN(C(=O)OC(C)(C)C)CC2)cc1
43.2% | CC(C)(C)OC(=O)N1CCN(c2ccc(NCc3ccccc3Cl)cc2)CC1
32.5% | COc1ccccc1CNc1ccc(N2CCOCC2)c(C(=O)O)c1
29.3% | Cc1ccccc1CNc1ccc(N2CCNCC2)cc1
0% | Oc1ccccc1CNc1ccc(N2CCOCC2)cc1
20% | CN1CCN(c2ccc(NCc3ccccc3Br)cc2)CC1
31% | Clc1ccccc1CNc1ccc(N2CCNCC2)cc1
37.9% | Oc1ccccc1CNc1ccc(N2CCNCC2)cc1

Activity | SMILES
14.7% | Cc1ccccc1CNc1ccc(N2CCCCC2)cc1
29.7% | CN1CCN(c2ccc(NCc3ccccc3Cl)cc2)CC1
41.3% | CC(C)(C)OC(=O)N1CCN(c2ccc(NCc3ccccc3C(F)(F)F)cc2)CC1
40.9% | Cc1ccccc1CNc1ccc(N2CCN(C)CC2)cc1
26.8% | Brc1ccccc1CNc1ccc(N2CCNCC2)cc1
23.9% | CC(C)(C)OC(=O)N1CCN(c2ccc(NCc3ccc(O)cc3)cc2)CC1
35.6% | CC(C)(C)OC(=O)N1CCN(c2ccc(NCc3ccccc3Br)cc2)CC1
30.4% | FC(F)(F)c1ccccc1CNc1ccc(N2CCNCC2)cc1
53.3% | CC(C)(C)OC(=O)N1CCN(c2ccc(NCc3ccc(Cl)cc3)cc2)CC1
28% | Brc1ccccc1CNc1ccc(N2CCCCC2)cc1
27.7% | COc1ccccc1CNc1ccc(N2CCNCC2)cc1
33.5% | CC(C)(C)OC(=O)N1CCN(c2ccc(NCc3cccc(F)c3)cc2)CC1
23.9% | CN1CCN(c2ccc(NCc3ccc(F)cc3)cc2)CC1
25.4% | CN1CCN(c2ccc(NCc3ccccc3C(F)(F)F)cc2)CC1
68.3% | CC(C)(C)OC(=O)N1CCN(c2ccc(NCc3ccc(F)cc3)cc2)CC1
9% | Fc1ccccc1CNc1ccc(N2CCCCC2)cc1
13.4% | CN1CCN(c2ccc(NCc3ccccc3O)cc2)CC1
36.8% | CC(C)(C)OC(=O)N1CCN(c2ccc(NCc3cccc(Cl)c3)cc2)CC1
